# Read-outs that look alike come from different tables or passages of the source.
# Experiments:
# [1] = test system: Shionogi mouse mammary carcinoma cells; assay: cells; format: cell-based; details: for Ki: read-out: Shionogi cells Antiandrogenic activity Ki; for % of inh of DHT at 10^−7 M (Basal = 100%): 0.0003 µM
# [2] = molecular target: T1, Human Androgen Receptor (Homo sapiens, UniProt P10275); format: binding
# T1 construct: expressed in transfected cells; host or cells: HEK-293 cells stably transfected with the pCMVneo-hAR plasmid (G-418 selection); cytosol used
# T1 sequence (P10275 1-920): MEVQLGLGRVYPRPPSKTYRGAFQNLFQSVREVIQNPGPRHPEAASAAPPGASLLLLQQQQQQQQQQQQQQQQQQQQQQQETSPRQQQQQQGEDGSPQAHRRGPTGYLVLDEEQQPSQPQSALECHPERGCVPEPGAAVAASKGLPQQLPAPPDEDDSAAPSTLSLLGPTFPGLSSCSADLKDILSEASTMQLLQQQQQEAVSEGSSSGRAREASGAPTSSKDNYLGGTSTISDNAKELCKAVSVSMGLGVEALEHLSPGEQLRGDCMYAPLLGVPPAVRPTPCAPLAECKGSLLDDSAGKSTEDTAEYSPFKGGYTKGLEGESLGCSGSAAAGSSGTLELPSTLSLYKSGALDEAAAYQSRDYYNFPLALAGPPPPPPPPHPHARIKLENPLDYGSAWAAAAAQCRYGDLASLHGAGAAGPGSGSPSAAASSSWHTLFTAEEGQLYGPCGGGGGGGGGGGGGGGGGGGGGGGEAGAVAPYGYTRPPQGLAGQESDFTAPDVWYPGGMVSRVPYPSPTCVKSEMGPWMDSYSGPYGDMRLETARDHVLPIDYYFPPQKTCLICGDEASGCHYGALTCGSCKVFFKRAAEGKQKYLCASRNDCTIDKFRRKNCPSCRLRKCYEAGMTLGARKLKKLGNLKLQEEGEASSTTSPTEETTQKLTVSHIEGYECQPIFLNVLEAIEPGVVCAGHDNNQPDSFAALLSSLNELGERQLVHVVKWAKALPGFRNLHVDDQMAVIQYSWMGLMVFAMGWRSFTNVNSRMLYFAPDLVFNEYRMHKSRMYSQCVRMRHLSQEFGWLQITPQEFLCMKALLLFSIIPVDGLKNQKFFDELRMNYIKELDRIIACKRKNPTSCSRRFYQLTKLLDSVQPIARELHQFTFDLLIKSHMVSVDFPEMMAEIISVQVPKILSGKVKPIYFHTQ
# [3] = test system: Immature Rat CX + DHT; assay: animal or person; format: in vivo; details: po; for change in vivo at 0.1 mg / change in vivo at 0.5 mg: Rattus norvegicus, 168 h
# [4] = test system: Immature Rat CX; details: for In Vivo Agonist % Change vs CX (DHT = +100%) SV / In Vivo Agonist % Change vs CX (DHT = +100%) VP: po
# [5] = test system: Intact Rat; assay: In vivo activity in intact rat (organ and muscle weight); details: rat, in vivo
# [6] = read-out: In Vivo Antagonist % Change vs DHT (CX = −100%) SV
# [7] = read-out: In Vivo Antagonist % Change vs DHT (CX = −100%) VP
smiles,measurement,setting,value
C[C@]12CCC3c4ccc(C#N)c(F)c4CCC3C1CC[C@@]2(O)Cc1ccncc1Cl (stereo partly shown) [EM-8632],Shionogi cells Antiandrogenic activity Ki OH-Flu/Ki compound,[1],2.1
same,Ki,[1],4.1 nM
same,Human Androgen Receptor Binding RBA (%) R1881 = 100%,[2],47%
same,In Vivo Antagonist % Change vs DHT (CX = −100%) SV,"[3]; rat, in vivo",−74 ± 3%
same,In Vivo Antagonist % Change vs DHT (CX = −100%) VP,"[3]; rat, in vivo",−43 ± 6%
C[C@]12CCC3c4ccc(C#N)c(F)c4CCC3C1CC[C@@]2(O)Cc1cc[n+]([O-])cc1Cl (stereo partly shown) [EM-8633],Ki,[1],0.8 nM
same,Human Androgen Receptor Binding RBA (%) R1881 = 100%,[2],2.3%
same,In Vivo Agonist % Change vs CX (DHT = +100%) SV,[4],1%
same,In Vivo Agonist % Change vs CX (DHT = +100%) VP,[4],0%
same,change in vivo at 0.1 mg,[3]; [6],-83%
same,change in vivo at 0.1 mg,[3]; [7],-42 ± 5%
C[C@]12CCC3c4ccc(C#N)c(Cl)c4CCC3C1CC[C@@]2(O)Cc1ccncc1F (stereo partly shown) [EM-5988],Shionogi cells Antiandrogenic activity Ki (nM),[1],mixed
same,Shionogi cells Antiandrogenic activity Ki OH-Flu/Ki compound,[1],mixed
same,Human Androgen Receptor Binding RBA (%) R1881 = 100%,[2],97 ± 19%
same,In Vivo Agonist % Change vs CX (DHT = +100%) SV,[4],+10 ± 0%
same,In Vivo Agonist % Change vs CX (DHT = +100%) VP,[4],+10 ± 0%
same,In Vivo Antagonist % Change vs DHT (CX = −100%) SV,"[3]; rat, in vivo",[−83 ± 3] %
same,In Vivo Antagonist % Change vs DHT (CX = −100%) VP,"[3]; rat, in vivo",[−71 ± 5] %
C[C@]12CCC3c4ccc(C#N)c(F)c4CCC3C1CC[C@@]2(O)Cc1ccncc1 (stereo partly shown) [EM-5855],Shionogi cells Antiandrogenic activity Ki OH-Flu/Ki compound,[1],11 ± 1
same,Ki,[1],1 ± 0.2 nM
same,Human Androgen Receptor Binding RBA (%) R1881 = 100%,[2],8.2 ± 0.5%
same,In Vivo Agonist % Change vs CX (DHT = +100%) SV,[4],[1 ± 4] %
same,In Vivo Agonist % Change vs CX (DHT = +100%) VP,[4],[2 ± 1] %
CCC1CC2(C)C(CCC2(O)Cc2cc[n+]([O-])cc2F)C2CCc3c(ccc(C#N)c3F)C12 (stereo not shown) [EM-9017],% of stim of basal at 10^−7M (% over basal),[1],+36%
same,% of stim of basal at 10^−7 M (DHT = 100%),[1],+31%
same,% of inh of DHT at 10^−7 M (Basal = 100%),[1],+64%
same,In Vivo Intact Rat % change vs Intact CONT (Intact CONT = +100%; CX CONT = 0%) Bulbo,[5],+154 ± 13%
same,In Vivo Intact Rat % change vs Intact CONT (Intact CONT = +100%; CX CONT = 0%) SZ,[5],+57 ± 6%
same,In Vivo Intact Rat % change vs Intact CONT (Intact CONT = +100%; CX CONT = 0%) VP,[5],+47 ± 5%
same,inhibition of intact rat prostate,[5],53±5%
same,inhibition of intact rat seminal vesicles,[5],43±6%
same,stimulation of the bulbocavernosus muscles in intact rat,[5],54±13%
same,Human Androgen Receptor Binding RBA (%) R1881 = 100%,[2],139%
same,In Vivo Agonist Rat CX % change vs CX (DHT CONT = +100%) Bulbo,[4],+102 ± 12%
same,In Vivo Agonist Rat CX % change vs CX (DHT CONT = +100%) SV,[4],+22 ± 2%
same,In Vivo Agonist Rat CX % change vs CX (DHT CONT = +100%) VP,[4],+24 ± 5%
same,In Vivo Anti-A Rat CX + DHT % change vs DHT (CX CONT = −100%) Bulbo,"[3]; rat, in vivo",+3 ± 11%
same,In Vivo Anti-A Rat CX + DHT % change vs DHT (CX CONT = −100%) SV,"[3]; rat, in vivo",−54 ± 2%
same,In Vivo Anti-A Rat CX + DHT % change vs DHT (CX CONT = −100%) VP,"[3]; rat, in vivo",−42 ± 2%
C[C@]12CCC3c4ccc(C#N)c(Cl)c4CCC3C1CCC[C@@]2(O)Cc1ccncc1 (stereo partly shown) [EM-5943],Ki,[1],2.1 ± 1.8 nM
same,Human Androgen Receptor Binding RBA (%) R1881 = 100%,[2],26%
same,In Vivo Agonist % Change vs CX (DHT = +100%) SV,[4],+3 ± 4%
same,In Vivo Agonist % Change vs CX (DHT = +100%) VP,[4],+2 ± 2%
CCC1CC2(C)C(CCC2(O)Cc2cc[n+]([O-])cc2)C2CCc3c(ccc(C#N)c3F)C12 (stereo not shown) [EM-8987],% of stim of basal at 10^−7M (% over basal),[1],+73%
same,% of stim of basal at 10^−7 M (DHT = 100%),[1],+74%
same,% of inh of DHT at 10^−7 M (Basal = 100%),[1],+35%
same,In Vivo Intact Rat % change vs Intact CONT (Intact CONT = +100%; CX CONT = 0%) Bulbo,[5],+292 ± 30%
same,In Vivo Intact Rat % change vs Intact CONT (Intact CONT = +100%; CX CONT = 0%) SZ,[5],+110 ± 13%
same,In Vivo Intact Rat % change vs Intact CONT (Intact CONT = +100%; CX CONT = 0%) VP,[5],+84 ± 4%
same,Human Androgen Receptor Binding RBA (%) R1881 = 100%,[2],26%
same,In Vivo Agonist Rat CX % change vs CX (DHT CONT = +100%) Bulbo,[4],+118 ± 10%
same,In Vivo Agonist Rat CX % change vs CX (DHT CONT = +100%) SV,[4],+25 ± 5%
same,In Vivo Agonist Rat CX % change vs CX (DHT CONT = +100%) VP,[4],+56 ± 11%
Cc1c(C#N)ccc2c1CCC1C2CCC2(C)C1CCCC2(O)Cc1cc[n+]([O-])cc1 (stereo not shown) [EM-9140],Shionogi cells Antiandrogenic activity Ki OH-Flu/Ki compound,[1],11
same,Ki,[1],1.2 nM
same,Human Androgen Receptor Binding RBA (%) R1881 = 100%,[2],1.4%
same,In Vivo Agonist % Change vs CX (DHT = +100%) SV,[4],0%
same,In Vivo Agonist % Change vs CX (DHT = +100%) VP,[4],0%
C[C@H]1C[C@@]2(C)C(CC[C@@]2(O)Cc2ccncc2F)C2CCc3c(ccc(C#N)c3F)C21 (stereo partly shown) [EM-6594],% of stim of basal at 10^−7M (% over basal),[1],+224%
same,% of stim of basal at 10^−7 M (DHT = 100%),[1],+63%
same,% of inh of DHT at 10^−7 M (Basal = 100%),[1],+37%
same,Human Androgen Receptor Binding RBA (%) R1881 = 100%,[2],292%
same,In Vivo Agonist Rat CX % change vs CX (DHT CONT = +100%) Bulbo,[4],+97 ± 19%
same,In Vivo Agonist Rat CX % change vs CX (DHT CONT = +100%) SV,[4],+13 ± 2%
same,In Vivo Agonist Rat CX % change vs CX (DHT CONT = +100%) VP,[4],+28 ± 7%
same,In Vivo Anti-A Rat CX + DHT % change vs DHT (CX CONT = −100%) SV,"[3]; rat, in vivo",[−69 ± 4] %
same,In Vivo Anti-A Rat CX + DHT % change vs DHT (CX CONT = −100%) VP,"[3]; rat, in vivo",[−56 ± 4] %
Cc1cnccc1C[C@]1(O)CCC2C3CCc4c(ccc(C#N)c4F)C3CC[C@@]21C (stereo partly shown) [EM-8504],Shionogi cells Antiandrogenic activity Ki OH-Flu/Ki compound,[1],7.5
same,Ki,[1],2.5 nM
same,Human Androgen Receptor Binding RBA (%) R1881 = 100%,[2],6.1%
same,change in vivo at 0.1 mg,[3]; [6],-75 ± 2%
same,change in vivo at 0.1 mg,[3]; [7],-51 ± 13%
C[C@]12CCC3c4ccc(C#N)cc4CCC3C1CC[C@@]2(O)Cc1ccc(-c2ccncc2)cc1 (stereo partly shown) [EM-4240],Shionogi cells Antiandrogenic activity Ki OH-Flu/Ki compound,[1],1.4
same,Ki,[1],24 nM
same,Human Androgen Receptor Binding RBA (%) R1881 = 100%,[2],110%
same,In Vivo Agonist % Change vs CX (DHT = +100%) SV,[4],+3 ± 1%
same,In Vivo Agonist % Change vs CX (DHT = +100%) VP,[4],+12 ± 3%
same,change in vivo at 0.1 mg,[3]; [6],-58 ± 2%
same,change in vivo at 0.5 mg,[3]; [6],-85%
same,change in vivo at 0.1 mg,[3]; [7],-46 ± 9%
same,change in vivo at 0.5 mg,[3]; [7],-52%
C[C@]12CCC3c4ccc(C#N)c(F)c4CCC3C1CC[C@@]2(O)Cc1ccncc1F (stereo partly shown) [EM-8455],Shionogi cells Antiandrogenic activity Ki OH-Flu/Ki compound,[1],3.1
same,Ki,[1],1.9 nM
same,Human Androgen Receptor Binding RBA (%) R1881 = 100%,[2],9.1%
same,In Vivo Agonist % Change vs CX (DHT = +100%) SV,[4],+1 ± 2%
same,In Vivo Agonist % Change vs CX (DHT = +100%) VP,[4],0%
same,change in vivo at 0.1 mg,[3]; [6],-85 ± 4%
same,change in vivo at 0.1 mg,[3]; [7],-49 ± 3%
C[C@]12CCC3c4ccc(C#N)c(Cl)c4CCC3C1CC[C@@]2(O)Cc1cc[n+]([O-])cc1F (stereo partly shown) [EM-5987],Ki,[1],0.35 ± 0.15 nM
same,Human Androgen Receptor Binding RBA (%) R1881 = 100%,[2],6.8 ± 1.7%
same,change in vivo at 0.5 mg,[3]; [6],-83%
same,change in vivo at 0.5 mg,[3]; [7],-69%
Cc1c(C#N)ccc2c1CCC1C2CC[C@@]2(C)C1CC[C@@]2(O)Cc1ccncc1 (stereo partly shown) [EM-5984],Shionogi cells Antiandrogenic activity Ki OH-Flu/Ki compound,[1],4.0
same,Ki,[1],1.9 nM
same,Human Androgen Receptor Binding RBA (%) R1881 = 100%,[2],29%
same,In Vivo Agonist % Change vs CX (DHT = +100%) SV,[4],0%
same,In Vivo Agonist % Change vs CX (DHT = +100%) VP,[4],0%

# Source: patent US9284345B2 (priority 2007, dated 2016)
